Here are results for twelve molecules from US20100305121A1, “NOVEL ANTAGONISTS OF THE HUMAN FATTY ACID SYNTHASE THIOESTERASE” (priority 2006, published 2010).

The subject of data set [1] is MDA-MB-435 breast carcinoma cells. The experiment in a line: Cytotoxicity, MTS assay. The note with it: read-out: Cytotoxicity IC50, MDA-MB-435 cells, 48 hours.
The next data set is described as follows: Cytotoxicity, MTS assay. The following applies: human, MDA-MB-435 breast carcinoma cells, Cytotoxicity IC50 (μM), MDA-MB-435 cells.
Data set [2] has as its target T1, human FAS TE (Homo sapiens, UniProt P49327).
T1 construct: Expression of the recombinant thioesterase domain of FAS using pTrcHis-TOPO vector (Invitrogen) was as described in Kridel et al. (2004); His tag (from pTrcHis-TOPO vector)
The experiment in a line: Fluorogenic 4-MUH screening assay of recombinant FAS TE (primary and secondary screen). Format: biochemical.

The target in data set [3] is T2, FAS holoenzyme (Homo sapiens, UniProt P49327).
T2 construct: Fatty acid synthesis by the FAS holoenzyme in cell lysates was measured by incorporation of; endogenous in cells; host or cells: MDA-MB-435 cell lysate
T2 sequence (P49327 2-2511 limits assumed): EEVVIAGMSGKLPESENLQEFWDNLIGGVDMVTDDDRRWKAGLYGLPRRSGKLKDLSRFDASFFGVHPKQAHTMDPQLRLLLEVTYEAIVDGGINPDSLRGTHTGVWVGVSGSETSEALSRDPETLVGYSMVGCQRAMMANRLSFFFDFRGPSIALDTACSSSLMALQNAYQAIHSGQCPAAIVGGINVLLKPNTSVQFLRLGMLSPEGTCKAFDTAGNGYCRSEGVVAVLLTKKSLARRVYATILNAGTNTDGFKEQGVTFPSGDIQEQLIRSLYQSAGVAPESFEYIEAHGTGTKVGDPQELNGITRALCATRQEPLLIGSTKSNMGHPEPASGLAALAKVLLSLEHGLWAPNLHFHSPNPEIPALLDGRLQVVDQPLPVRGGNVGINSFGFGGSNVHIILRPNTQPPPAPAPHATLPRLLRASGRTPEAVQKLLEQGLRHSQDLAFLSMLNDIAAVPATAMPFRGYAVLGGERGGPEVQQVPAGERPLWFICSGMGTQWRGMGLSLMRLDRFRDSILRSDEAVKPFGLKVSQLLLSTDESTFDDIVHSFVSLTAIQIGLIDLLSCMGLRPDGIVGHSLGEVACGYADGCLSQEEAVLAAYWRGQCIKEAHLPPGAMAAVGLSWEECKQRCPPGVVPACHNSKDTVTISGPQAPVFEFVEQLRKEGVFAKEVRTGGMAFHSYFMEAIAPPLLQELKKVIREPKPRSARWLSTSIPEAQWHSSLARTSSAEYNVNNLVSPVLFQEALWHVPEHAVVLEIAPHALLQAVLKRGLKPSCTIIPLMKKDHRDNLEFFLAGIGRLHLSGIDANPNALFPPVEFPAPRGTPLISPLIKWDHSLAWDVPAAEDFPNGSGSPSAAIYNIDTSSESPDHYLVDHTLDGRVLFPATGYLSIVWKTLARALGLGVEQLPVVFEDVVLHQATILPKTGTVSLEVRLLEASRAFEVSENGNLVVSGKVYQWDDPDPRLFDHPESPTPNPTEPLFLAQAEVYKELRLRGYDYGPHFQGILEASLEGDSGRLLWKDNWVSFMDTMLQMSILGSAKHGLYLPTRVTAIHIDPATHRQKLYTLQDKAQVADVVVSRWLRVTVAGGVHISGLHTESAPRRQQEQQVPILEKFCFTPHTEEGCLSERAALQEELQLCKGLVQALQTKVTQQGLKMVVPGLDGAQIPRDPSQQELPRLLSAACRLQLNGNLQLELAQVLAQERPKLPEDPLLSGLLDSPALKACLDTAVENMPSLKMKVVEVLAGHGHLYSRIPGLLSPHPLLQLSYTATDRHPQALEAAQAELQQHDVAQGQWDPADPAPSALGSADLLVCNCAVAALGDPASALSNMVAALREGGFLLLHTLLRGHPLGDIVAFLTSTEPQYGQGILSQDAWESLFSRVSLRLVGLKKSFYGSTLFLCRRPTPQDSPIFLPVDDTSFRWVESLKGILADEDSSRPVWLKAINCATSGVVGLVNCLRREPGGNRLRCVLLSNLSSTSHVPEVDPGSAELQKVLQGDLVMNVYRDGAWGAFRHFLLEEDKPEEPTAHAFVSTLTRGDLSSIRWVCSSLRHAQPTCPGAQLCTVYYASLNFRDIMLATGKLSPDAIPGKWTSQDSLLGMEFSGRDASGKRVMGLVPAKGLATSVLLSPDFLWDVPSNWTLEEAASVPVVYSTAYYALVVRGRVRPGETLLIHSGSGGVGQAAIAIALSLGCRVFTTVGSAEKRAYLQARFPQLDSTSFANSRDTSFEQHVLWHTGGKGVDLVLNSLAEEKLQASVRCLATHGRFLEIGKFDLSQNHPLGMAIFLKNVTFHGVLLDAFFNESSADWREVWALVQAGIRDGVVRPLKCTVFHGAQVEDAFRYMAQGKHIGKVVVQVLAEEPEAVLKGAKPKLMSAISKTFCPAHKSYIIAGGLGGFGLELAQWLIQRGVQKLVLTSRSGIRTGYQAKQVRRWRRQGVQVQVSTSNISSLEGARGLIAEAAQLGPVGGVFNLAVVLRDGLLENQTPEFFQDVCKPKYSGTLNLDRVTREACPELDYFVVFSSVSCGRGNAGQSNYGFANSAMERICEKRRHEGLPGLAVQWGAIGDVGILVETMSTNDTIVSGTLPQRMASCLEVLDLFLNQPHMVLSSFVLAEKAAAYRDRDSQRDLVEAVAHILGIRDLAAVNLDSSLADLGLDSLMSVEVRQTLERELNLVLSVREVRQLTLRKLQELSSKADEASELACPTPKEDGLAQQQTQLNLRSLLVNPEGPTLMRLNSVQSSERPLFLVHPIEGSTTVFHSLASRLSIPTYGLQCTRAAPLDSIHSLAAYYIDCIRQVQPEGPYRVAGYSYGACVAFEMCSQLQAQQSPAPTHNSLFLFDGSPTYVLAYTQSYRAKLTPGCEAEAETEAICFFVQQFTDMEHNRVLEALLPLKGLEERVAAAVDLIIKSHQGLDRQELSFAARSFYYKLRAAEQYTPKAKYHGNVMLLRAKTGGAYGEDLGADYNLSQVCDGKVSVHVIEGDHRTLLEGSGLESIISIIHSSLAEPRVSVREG
The experiment in a line: Activity-based probe FP-BODIPY labeling of FAS TE active site in MDA-MB-435 cell lysates. The note with it: MB-MDA-435 cell lysates, 50 nM probe. Format: binding.

The target in data set [4] is T2, FAS holoenzyme. The experiment in a line: Fatty acid synthesis in vitro, [14C] malonyl-CoA incorporation in MDA-MB-435 cell lysates. The note with it: for effect on fatty acid biosynthesis in cell lysates: 6.3 to 50 μM. The data set is classed as biochemical.
The target in data set [5] is T1, human FAS TE. The data set can be described thus: Kinetic characterization of inhibitors, 4-MUH turnover by FAS TE. The data set is classed as biochemical.

The structures appear in SMILES notation.

T1 sequence (P49327 2207-2511 limits assumed): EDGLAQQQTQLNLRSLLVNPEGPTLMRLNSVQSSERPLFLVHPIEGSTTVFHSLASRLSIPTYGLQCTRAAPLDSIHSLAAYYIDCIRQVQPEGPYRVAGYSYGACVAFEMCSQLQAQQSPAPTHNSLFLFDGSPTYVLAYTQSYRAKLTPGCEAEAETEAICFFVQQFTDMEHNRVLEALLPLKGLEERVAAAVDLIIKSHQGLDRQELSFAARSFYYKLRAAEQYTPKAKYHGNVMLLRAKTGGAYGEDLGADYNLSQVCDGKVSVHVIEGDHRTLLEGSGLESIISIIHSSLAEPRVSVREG

On to `O=C1NC(=O)N(c2ccccc2)C(=O)/C1=C\C/C=C/c1ccccc1[N+](=O)[O-]` [RDR914 (8), (Z)-5-((E)-4-(2-nitrophenyl)but-3-enylidene)-1 - phenylpyrimidine-2,4,6(1H,3H,5H)-trione], for which the IC50 in data set [1] is 9.53 µM; on human FAS TE [2], 1.5 µM. For the same molecule, the IC50 at 48 h in the data set “Cytotoxicity, MTS assay” amounted to 9.5 µM.
As to `O=C1NC(=S)NC(=O)C1=Cc1ccc(-c2ccc(C(=O)O)cc2)o1` [RDR423 (4), 4-(5-((4,6-dioxo-2-thioxotetrahydropyrimidin-5(6H)-ylidene)methyl)furan-2-yl)benzoic acid], on human FAS TE [2], the IC50 was found to be 5.3 µM.
In the case of `COc1cccc(N2C(=O)NC(=O)/C(=C/C/C=C/c3ccccc3[N+](=O)[O-])C2=O)c1` [RDR203 (9), (Z)-1-(3-methoxyphenyl)-5-((E)-4-(2-nitrophenyl)but-3-enylidene)pyrimidine-2,4,6(1H,3H,5H)-trione], at human FAS TE [2], the IC50 was found to be 2 µM.
Molecule `CN1C(=O)NC(=O)/C(=C/c2ccc(-c3ccc([N+](=O)[O-])cc3Br)o2)C1=O` [RDR102 (2), (Z)-5-((5-(2-bromo-4-nitrophenyl)furan-2-yl)methylene)-1-methylpyrimidine-2,4,6(1H,3H,5H)-trione] yielded an IC50 at 48 h in the data set “Cytotoxicity, MTS assay” of 14.2 µM. Moreover, at FAS holoenzyme [3], the “concentration of complete inhibition of FP-BODIPY binding” value is on record as “approximately 50 μM”. Besides, at FAS holoenzyme [4], the IC50 is about 20 µM and the “effect on fatty acid biosynthesis in cell lysates” value is reported as “completely abrogated fatty acid biosynthesis”. The Ki on human FAS TE [5] came to 0.1 µM.
`O=C1NC(=O)C(=Cc2ccc(-c3cc([N+](=O)[O-])ccc3O)o2)C(=O)N1` [RDR256 (5), 5-((5-(2-hydroxy-5-nitrophenyl)furan-2-yl)methylene)pyrimidine-2,4,6(1H,3H,5H)-trione]: on human FAS TE [2], the IC50 stood at 9.2 µM.
For the molecule `Cc1cccc(N2C(=O)NC(=O)/C(=C/Nc3ccccc3C)C2=O)c1` [RDR564 (12), (Z)-1-m-tolyl-5-((o-tolylamino)methylene)pyrimidine-2,4,6(1H,3H,5H)-trione], the IC50 at human FAS TE [2] turned out to be 105 µM.
`Cc1ccc(Br)c(-c2ccc(C=C3C(=O)NC(=S)NC3=O)o2)c1` [RDR019 (1), 5-((5-(2-bromo-5-methylphenyl)furan-2-yl)methylene)-2-thioxodihydropyrimidine-4,6(1H,5H)-dionc]: the midpoint of inhibition in the data set “Cytotoxicity, MTS assay”, the IC50 at 48 h, lay at 20.6 µM. Also, on FAS holoenzyme [4], the IC50 was about 20 µM and the “effect on fatty acid biosynthesis in cell lysates” value is given as “completely abrogated fatty acid biosynthesis”. In addition, at human FAS TE [5], the Ki came out at 0.11 µM, the “partial versus pure non-competitive inhibition (Km/Vmax(i) versus [I])” value was “partial non-competitive inhibitor” and the “type of inhibition of FAS TE (double reciprocal plots)” value is given as “non-competitive inhibitors”.
In the case of `CCOc1ccc(C/C=C2/C(=O)NC(=O)N(c3ccc(OCC)cc3)C2=O)cc1` [RDR506 (11), (Z)-1-(4-ethoxyphenyl)-5-(2-(4-ethoxyphenyl)ethylidene)pyrimidine-2,4,6(1H,3H,5H)-trione], the IC50 on human FAS TE [2] was 14.5 µM.
Regarding `O=C1NC(=O)C(=Cc2ccc(-c3ccccc3C(=O)O)o2)C(=O)N1` [RDR317 (6), 2-(5-((2,4,6-trioxotetrahydropyrimidin-5(6H)-ylidene)methyl)furan-2-yl)benzoic acid], the IC50 at human FAS TE [2] was determined as 29 µM.
In the case of `COc1ccc(N2C(=O)NC(=O)/C(=C/C/C=C/c3ccccc3)C2=O)c(OC)c1` [RDR755 (7), (Z)-1-(2,4-dimethoxyphenyl)-5-((E)-4-phenylbut-3-enylidene)pyrimidine-2,4,6(1H,3H,5H)-trione], the IC50 in data set [1] came out at 1.61 µM. The molecule further displayed an IC50 at 48 h in the data set “Cytotoxicity, MTS assay” of 1.6 µM. In addition, at human FAS TE [5], the Ki came out at 0.12 µM and the “type of inhibition of FAS TE (double reciprocal plots)” value is given as “non-competitive inhibitors”.
For the molecule `COc1ccc(-c2ccc(C=C3C(=O)NC(=S)NC3=O)o2)c([N+](=O)[O-])c1` [RDR924 (3), 5-((5-(4-methoxy-2-nitrophenyl)furan-2-yl)methylene)-2-thioxodihydropyrimidine-4,6(1H,5H)-dione], the “concentration of complete inhibition of FP-BODIPY binding” value at FAS holoenzyme [3] is on record as “approximately 50 μM”. Also, the IC50 at human FAS TE [2] is 4.4 µM.
Regarding `CN(C)c1ccc(C/C=C2/C(=O)NC(=S)N(c3ccccc3F)C2=O)cc1` [RDR057 (10), (Z)-5-(2-(4-(dimethylamino)phenyl)ethylidene)-1-(2-fluorophenyl)-2-thioxodihydropyrimidine-4,6(1H,5H)-dione], the IC50 on human FAS TE [2] came to 4.3 µM.
